Results on one substance are retold here after patent publication US20050164929A1, “Methods of preventing and treating inflammatory bowel disease” (LUPINE LOGIC, INC., priority 2000, published 2005).

Experiment [1] concerns NIH 3T3 murine embryonic fibroblast cells. Nature of the experiment: BrdU incorporation bioassay of RP-HPLC peak fractions. To be noted: BrdU incorporation. The experiment is classed as cell-based, mouse. As to the method:
The biological activity of CG53135-05 related species collected from the 4 peaks identified by LC and MS was measured by treatment of serum-starved cultured NIH 3T3 murine embryonic fibroblast cells with various doses of the isolated CG53135-05 related species and measurement of incorporation of bromodeoxyuridine (BrdU) during DNA synthesis. For this assay, cells were cultured in Dulbecco's modified Eagle's medium supplemented with 10% fetal bovine serum. Cells were grown in 96-well plates to confluence at 37° C. in 10% CO2/air and then starved in Dulbecco's modified Eagle's medium for 24-72 hours. CG53135-05-related species were added and incubated for 18 hours at 37° C. in 10% CO2/air. BrdU ([…]) was added and incubated with the cells for 2 hours at 37° C. in 10% CO2/air. Incorporation of BrdU was measured by enzyme-linked immunosorbent assay according to the manufacturer's specifications (Roche Molecular Biochemicals, Indianapolis, Ind.).
Peak 4 was not included in this assay since insufficient material was collected (Peak 4 is less than 3% of the total peak area for CG53135-05).
Background: Incorporation of labelled thymidine or its analogues reports DNA synthesis.

The test system of a further experiment is endothelial cells. Nature of the experiment: Proliferation summary for variants. The experiment is classed as cell-based. As to conditions: in vitro. The method, then:
(§1) Experiments were performed to evaluate the proliferative response of representative cell types to CG53135, e.g., a full-length tagged variant (CG53135-01), a deletion variant (CG53135-02), and a full-length codon-optimized untagged variant (CG53135-05).
(§2) CG53135-02 (batch 1 and 13) was also used in these experiments. Protein was expressed in E. coli, BLR (DE3) (Novagen), transformed with the deletion variant CG53135-02 inserted into a pET24a vector (Novagen). A research cell bank (RCB) was produced and cell paste containing CG53135-02 was produced by fermentation of cells originating from the RCB. Cell membranes were disrupted by high-pressure homogenization, and lysate was clarified by centrifugation. CG53135-02 was purified by ion exchange chromatography. The final protein fraction was dialyzed against the formulation buffer (100 mM citrate, 1 mM ethylenediaminetetraacetic acid (EDTA), and 1 M L-arginine).
(§3) CG53135-05, DEV10, which were also used in these experiments, was prepared by Cambrex Biosciences (Hopkinton, Mass.) according to Process 1 as described in Section 6.18.1, infra.
(§4) BrdU Incorporation: proliferative activity was measured by treatment of serum-starved cultured cells with a given agent and measurement of BrdU incorporation during DNA synthesis. Cells were cultured in respective manufacturer recommended basal growth medium supplemented with 10% fetal bovine serum or 10% calf serum as per manufacturer recommendations. Cells were grown in 96-well plates to confluence at 37° C. in 10% CO2/air (to subconfluence at 5% CO2 for dedifferentiated chondrocytes and NHOst). Cells were then starved in respective basal growth medium for 24-72 hours. CG53135 protein purified from E. coli or pCEP4/Sec or pCEP4/Sec-FGF 20× enriched conditioned medium was added (10 μL/100 μL of culture) for 18 hours. BrdU (10 μM final concentration) was then added and incubated with the cells for 5 hours. BrdU incorporation was assayed according to the manufacturer's specifications (Roche Molecular Biochemicals, Indianapolis, Ind.).
(§5) The above described experiments were also performed using CG53135-02 and CG53135-05 protein products, and the results are summarized in the Conclusion section below.

Experiment [2] deals with mesenchymal and epithelial cells. Nature of the experiment: Proliferation summary for variants. The experiment is classed as cell-based. As to conditions: in vitro. The method, then: as §1, §2, §3, §4, §5
Experiment [3] relates to DSS-induced ulcerative colitis in female Swiss Webster mice. Briefly: Chronic 2 week DSS-induced ulcerative colitis (N-404). The experiment is classed as in vivo, mouse. As to the method:
Colitis was induced in female Swiss Webster mice by exposure to 3% DSS in the drinking water (ad libitum) on study Days 1-5 and maintained by exposure to 1% DSS in the drinking water (ad libitum) on study Days 6-15. Mice were randomly assigned to 4 groups of 15 animals (Table X). Mice were exposed to 3% DSS in drinking water on test Days 1 through 5 and 1% DSS on test Days 6-15, with concurrent intraperitoneal (IP) treatments of vehicle or CG53135-05 at 0.33, 1.67 and 3.33 mg/kg (UV) Days 6-14 after disease was established. Mice were weighed daily. On Day 15 animals were terminated by cervical dislocation, the colon length was measured, and colon content was scored. Tissues were collected into 10% neutral buffered formalin and processed routinely for histopathology.
Clinical Parameters and Gross Pathology: Only animals that survived the duration of the study were included in the analysis of body weight change, terminal colon lengths, and colon content scores. At necropsy, the colon length was measured and assessed for evidence of stool consistency changes. Colon content was scored at necropsy according to the following criteria: 0=Normal (firm, well formed stool); 1=Semi-solid stool; 2=Semi-solid to fluid stool; and 3=Semi-solid with definite evidence of blood, bloody fluid or no content.
Histopathology: At necropsy, the colon was harvested and divided into 2 approximately equal segments, proximal and distal, to assess regional changes induced in this model. Distal ends were marked to maintain orientation. These colon segments were collected, preserved in 10% neutral buffered formalin, and routinely processed for histopathologic evaluation. During processing for histology, the proximal and distal colon segments were each trimmed to obtain 4 equally spaced segments, and hematoxylin and eosin (H&E) stained slides were prepared for each. Both proximal and distal tissues were examined as these tissues are affected to different degrees of severity in this model (more severe and less variable symptoms predominate in the distal colon).
For each colon section, submucosal edema was quantified by measuring the distance (mm) from the muscularis mucosa to the internal border of the outer muscle layer. The extent of inflammation (foamy macrophages, lymphocytes and polymorphonuclear cell infiltrate) was assigned severity scores according to the following ranking: 0=Normal; 1=Minimal; 2=Mild; 3=Moderate; 4=Marked; and 5=Severe.
The parameters reflecting epithelial cell loss/damage were scored individually using a percent area involved scoring method. Parameters that were scored using the percent involvement scale included colon glandular loss and colon erosion. • 0=None • 1=1-10% of the mucosa affected • 2=11-25% of the mucosa affected • 3=26-50% of the mucosa affected • 4=51-75% of the mucosa affected • 5=76-100% of the mucosa affected
Mucosal epithelial hyperplasia (basophilia, mitotic figures, multilayered on basement membranes, absence of goblet cells) was scored 0-5 based on the following criteria • 0=Normal • 1=Minimal-small foci generally adjacent to the inflammatory changes • 2=Mild-11-25% of mucosa affected • 3=Moderate-26-50% of mucosa affected • 4=Marked-[…] of mucosa affected • 5=Severe-51-100% of mucosa affected plus papillary proliferation into lumen
Mucosal thickness (an indicator of proliferative changes or edematous inflammatory mucosal expansion) was measured by placing an ocular micrometer at the base of the glands and the overlying surface epithelium in a non-tangential area of section representative of the thickest areas of mucosa.
The scores for proximal tissues and distal colon were averaged to determine a score for the entire colon for each parameter evaluated. […]

For experiment [4], the system named is chronic DSS-induced ulcerative colitis in female Swiss Webster mice. Briefly: Chronic DSS colitis, every other day dosing (N-405). The experiment is classed as in vivo, mouse. To be noted: 3.33 mg/kg (UV) IP on Days 6, 8, 10, 12, 14 (q2d).
Where [5] appears, read: 3.33 mg/kg (UV), non-significant.

Regarding “CG53135-05: Codon optimized, full length FGF-20, untagged; SEQ ID NOs 8 and 2”, the “induction of DNA synthesis / activity in proliferation assays” value in experiment [1] is reported as “dose-dependent manner”. Moreover, the “proliferation of endothelial cells” value in the experiment on endothelial cells is “not”. Also, the “proliferation of mesenchymal and epithelial cells” value in experiment [2] was “induce proliferation”. For the same substance, the “reduction in weight loss” value in experiment [3] (0.33 mg/kg (UV) IP once daily Days 6-14) turned out to be 19%. Moreover, in experiment [3] (1.67 mg/kg (UV) IP once daily Days 6-14), the “reduction in weight loss” value came to 35%. Further, in experiment [3] (3.33 mg/kg (UV)), the “improvement in "on" inflammation” value was found to be 35%, the “improvement in distal gland loss” value came to 38%, the “improvement in distal summed histopathologic scores” value turned out to be 38% and the “improvement in total gland loss” value amounted to 37%. In experiment [3] (3.33 mg/kg (UV)), the “improvement in total inflammation” value was 34% and the “improvement in total summed histopathologic scores” value is 37%. Besides, in experiment [3] (3.33 mg/kg (UV) IP once daily Days 6-14), the “reduction in weight loss” value is given as 67%. In experiment [3] (setting [5]), the “improvement in the hyperplasia score” value was 31% and the “inhibition of the total mucosal thickness” value was 39%. Also, in experiment [3] (3.33 mg/kg (UV), statistically significant), the “colon length, inhibition of decrease” value is listed as 29%. The “improvement of colon scores” value in experiment [3] (1.67 or 3.33 mg/kg (UV)) is reported as 21-29%. Moreover, the “inhibition of proximal, distal and total colon erosion” value in experiment [3] (mid and high dose groups, non-significant) is reported as 46-62%. In addition, the “severity of chronic DSS-induced ulcerative colitis” value in experiment [4] was “significantly reduced the severity”.
